Assay results published in patent US4535075A, “Dithiolane derivative, process for producing the same and use thereof” (Nihon Nohyaku Co., Ltd., priority 1982, dated 1985).

Legend:
[1] = test system: liver damage induced by carbon tetrachloride; assay: Protective (Controlling) effect on liver damage induced by carbon tetrachloride; format: in vivo, mice (dd strain); conditions: 250 mg/kg p.o., CCl4 0.05 ml/kg after 6 h, 24 h; for p-GPT: CCl4 alone >2,100; for Liver Damage Index: average of 5 mice, 0 Normal, 2 Slightly recognized, 4 Clearly observable damage, 6 Heavy damage, CCl4 alone 5.0
Text: Protective (Controlling) Effect on liver damage induced by carbon tetrachloride.
Carbon tetrachloride administration induces centrilobular necrosis of the liver associated with loss of diphosphopyridine nucleotide, hepatic glycogen, coenzyme A and increase in neutral fat. Release of several enzymes from the hepatocytes, and increases of enzyme activities in the plasma are recognized as the result of the damage of the liver.
A suitable means for evaluating the degree induced by carbon tetrachloride or the degree of protection afforded by drugs is to study the plasma glutamic-pyruvic transaminase (p-GPT) activity. […]
After 6 hours, carbon tetrachloride was administered orally 0.05 ml/kg.
Animals were killed 24 hours after carbon tetrachloride administration, and the liver was grossly observed.
The plasma was obtained by centrifugation. Activity of p-GPT were determined by the method of Reitman and Frankel and expressed in Karmen units.
Score for liver damage index was as follows:
1 Each figure indicated average of 5 mice.

[2] = test system: liver damage induced by α-naphthyl isothiocyanate (ANIT); assay: Protective effect on liver damage induced by ANIT (Method 1); format: in vivo, mice; conditions: 2 x 250 mg/kg p.o., ANIT 35 mg/kg p.o., 24 h
Text: Protective effect on liver damage induced by α-naphthyl isothiocyanate (referred to as "ANIT", hereinafter).
It is well known that experimental cholestasis is accomplished by administration with ANIT in mice and rats, and studied as a cholestasis model in human being.
ANIT and CCl4 induce necrosis in the liver. ANIT causes it as small focci in perilobular parenchyna and CCl4 causes centrilobular parenchymal coagulation necrosis.
From these information, the elevation of plasma GPT activity in these models are thought to have defferent characteristics.
Test compounds, dissolved or suspended in olive oil or diethyleneglycol, were orally administered 2 times at intervals of 3 hrs to mice at the dose of 250 mg/kg. At 3 hrs after the second administration with test compounds, ANIT was administered orally at 35 mg/kg.
Mice were sacrificed at 24 hrs after ANIT administration and blood samples were collected. The blood samples were centrifuged and plasma was obtained.
Plasma GPT activity and alkaline phosphatase activity were determined by Reitman & Frankel's method and Bessey-Lowry's method, respectively. The activity was expressed with Karmen Unit and Bessey-Lowry Unit, respectively.

[3] = Table 3-1, control 3.3, ANIT alone 5.3
[4] = Table 3-1, control 7.4, ANIT alone 324.0

SMILES	p-GPT [1] [Karmen units]	Liver Damage Index [1]	Alkaline phosphatase activity [2, 3] [B-L.V.]	p-GPT [2, 4] [K.U.]	Alkaline phosphatase activity ([2]; Table 3-2, ANIT alone 5.3) [B-L.V.]	p-GPT ([2]; Table 3-2, ANIT alone >653.7) [K.U.]
CCCCOC(=O)C(C(=O)OCCCC)=C1SC(O)C(O)S1 (stereo not shown) [Compound 4]	18	0.0	3.3	26.8		
CC(C)COC(=O)C(C(=O)OC(C)C)=C1SC(O)C(O)S1 (stereo not shown) [Compound 22]	9	0.0	5.0	221.0		
CC(C)(C)OC(=O)C(C(=O)OC(C)(C)C)=C1SC(O)C(O)S1 (stereo not shown) [Compound 7]	90	0.0			3.5	422.8
CCC(COC)OC(=O)C(C(=O)OC(CC)COC)=C1SC(O)C(O)S1 (stereo not shown) [Compound 16]	30	0.2			5.0	275.2
CCCOC(=O)C(C(=O)OC(C)C)=C1SC(O)C(O)S1 (stereo not shown) [Compound 20]	30	0.4	4.0	163.4		
CC(C)OC(=O)C(C(=O)OC(C)C)=C1SCC(O)S1 (stereo not shown) [Compound A, reference compound]					8.5	> 755.0
CCCCOC(=O)C(C(=O)OCC)=C1SC(O)C(O)S1 (stereo not shown) [Compound 18]	28	0.0	4.8	180.8		
CCOC(=O)C(C(=O)C(C)C)=C1SC(O)C(O)S1 (stereo not shown) [Compound 51]	172	1.6				
CCCOC(=O)C(C(C)=O)=C1SC(OC(C)=O)C(OC(C)=O)S1 (stereo not shown) [Compound 61]	1260	0.8				
CCOC(=O)C(C(=O)Cc1ccccc1)=C1SC(O)C(O)S1 (stereo not shown) [Compound 55]	105	1.8				
CC(=O)OC1SC(=C(C(=O)OC(C)C)C(=O)OC(C)C)SC1OC(C)=O (stereo not shown) [Compound 58]	42.0	1.0				
CCC(C)OC(=O)C(C(=O)OC(C)CC)=C1SC(O)C(O)S1 (stereo not shown) [Compound 6]	21	0.0	4.9	142.0		
CCCOC(=O)C(C(=O)OCCC)=C1SC2OC(=O)OC2S1 (stereo not shown) [Compound 74]	38.8	0				
CC(C)OC(=O)C(C#N)=C1SC(O)C(O)S1 (stereo not shown) [Compound 27, isopropyl 4,5-dihydroxy-1,3-dithiolan-2-ylidenecyanoacetate]	23	0.2				
CCCOC(=O)C(C(C)=O)=C1SC(OC(=O)C(C)(C)C)C(OC(=O)C(C)(C)C)S1 (stereo not shown) [Compound 63]	402.6	1.8				
CCOC(=O)C(C(=O)OCC(C)C)=C1SC(O)C(O)S1 (stereo not shown) [Compound 19]	9	0.4	5.1	170.5		
O=C(OCc1ccccc1)C(C(=O)OCc1ccccc1)=C1SC(O)C(O)S1 (stereo not shown) [Compound 11]	33	0.0			4.3	437.5
CCOC(=O)C(C(=O)CC(C)C)=C1SC2OC(=O)OC2S1 (stereo not shown) [Compound 104]	17.6	0				
CCCOC(=O)C(C(=O)OCCC)=C1SC(OC(=O)OCC)C(OC(=O)OCC)S1 (stereo not shown) [Compound 66]	53.8	0.2				
CCCCCCOC(=O)C(C#N)=C1SC(O)C(O)S1 (stereo not shown) [Compound 33]	93	0.8				

SMILES	p-GPT [1] [Karmen units]	Liver Damage Index [1]	Alkaline phosphatase activity [2, 3] [B-L.V.]	p-GPT [2, 4] [K.U.]	Alkaline phosphatase activity ([2]; Table 3-2, ANIT alone 5.3) [B-L.V.]	p-GPT ([2]; Table 3-2, ANIT alone >653.7) [K.U.]
CC(=O)C(C(=O)OC(C)C)=C1SC2OC(=O)OC2S1 (stereo not shown) [Compound 89]	26.3	0.4				
C#CCOC(=O)C(C(=O)OCC#C)=C1SC(O)C(O)S1 (stereo not shown) [Compound 13]	30	0.0			4.5	265.6
CCCOC(=O)C(C(=O)OCCC)=C1SC(OC(C)=O)C(OC(C)=O)S1 (stereo not shown) [Compound 59]	40.9	0.4				
CCOC(=O)C(C(=O)CC(C)C)=C1SC(O)C(O)S1 (stereo not shown) [Compound 53]	94	0.8				
C=CCOC(=O)C(C(C)=O)=C1SC2OC(=O)OC2S1 (stereo not shown) [Compound 98]	16.9	0				
COCCOC(=O)C(C(=O)OCCOC)=C1SC(O)C(O)S1 (stereo not shown) [Compound 14]	56	0.2			3.1	11.5
CC(C)OC(=O)C(C(=O)OC(C)C)=C1SC2OC(=S)OC2S1 (stereo not shown) [Compound 109]	139.3	0.4				
CC(C)CCOC(=O)C(C(=O)OCCC(C)C)=C1SC(O)C(O)S1 (stereo not shown) [Compound 9]	47	0.0			3.4	27.2
COCC(C)OC(=O)C(C(=O)OC(C)COC)=C1SC(O)C(O)S1 (stereo not shown) [Compound 15, bis(3-methoxypropan-2-yl)4,5-dihydroxy-1,3-dithiolan-2-ylidenemalonate]	39	0.0			3.7	134.5
C=CCOC(=O)C(C(=O)OCC=C)=C1SC2OC(=S)OC2S1 (stereo not shown) [Compound 112, 7-bis(allyloxycarbonyl)methylene-3-thioxo-2,4-dioxa-6,8-dithiabicyclo[3,3,0]octane]	20.2	0.6				
O=C1OC2SC(=C(C(=O)OCc3ccccc3)C(=O)OCc3ccccc3)SC2O1 (stereo not shown) [Compound 83]	105.5	1.2				
CCC(C)OC(=O)C(C(=O)OC(C)CC)=C1SC(OC(C)=O)C(OC(C)=O)S1 (stereo not shown) [Compound 60]	203.0	0				
CCCOC(=O)C(C(=O)OCC)=C1SC(O)C(O)S1 (stereo not shown) [Compound 17]	40	0.6	4.8	242.0		
C#CCOC(=O)C(C(=O)OCC#C)=C1SC2OC(=S)OC2S1 (stereo not shown) [Compound 113]	13.3	0.6				
CCCOC(=O)C(C(=O)OCCC)=C1SC(OC(=O)C(C)(C)C)C(OC(=O)C(C)(C)C)S1 (stereo not shown) [Compound 62]	223.2	1.2				
CCCOC(=O)C(C#N)=C1SC(O)C(O)S1 (stereo not shown) [Compound 26]	24	0.0				
CCCCCOC(=O)C(C(=O)OCCCCC)=C1SC2OC(=O)OC2S1 (stereo not shown) [Compound 80]	71.1	0.4				
O=C(OC1CCCCC1)C(C(=O)OC1CCCCC1)=C1SC(O)C(O)S1 (stereo not shown) [Compound 10]	72	0.0			4.9	363.7
CCCCOC(=O)C(C(=O)OC(C)C)=C1SC(O)C(O)S1 (stereo not shown) [Compound 21]	9	0.0	4.5	293.1		
CC(C)COC(=O)C(C(=O)OCC(C)C)=C1SC2OC(=S)OC2S1 (stereo not shown) [Compound 110]	554.7	1.2				
